Patent US12012419B2, “Heterocyclic compound” (Takeda Pharmaceutical Company Limited, priority 2018, dated 2024)

Columns and labels:
[1] = target: T1, human M1 receptor (hCHRM1) (Homo sapiens, UniProt P11229); assay: Measurement of M1 receptor positive allosteric modulator (M1PAM) activity; type: cell-based; details: CHO-K1 cells stably expressing hCHRM1, in the presence of acetylcholine at EC20 concentration, IP1 readout
T1 construct: expressed in transfected cells
T1 sequence (P11229 1-460): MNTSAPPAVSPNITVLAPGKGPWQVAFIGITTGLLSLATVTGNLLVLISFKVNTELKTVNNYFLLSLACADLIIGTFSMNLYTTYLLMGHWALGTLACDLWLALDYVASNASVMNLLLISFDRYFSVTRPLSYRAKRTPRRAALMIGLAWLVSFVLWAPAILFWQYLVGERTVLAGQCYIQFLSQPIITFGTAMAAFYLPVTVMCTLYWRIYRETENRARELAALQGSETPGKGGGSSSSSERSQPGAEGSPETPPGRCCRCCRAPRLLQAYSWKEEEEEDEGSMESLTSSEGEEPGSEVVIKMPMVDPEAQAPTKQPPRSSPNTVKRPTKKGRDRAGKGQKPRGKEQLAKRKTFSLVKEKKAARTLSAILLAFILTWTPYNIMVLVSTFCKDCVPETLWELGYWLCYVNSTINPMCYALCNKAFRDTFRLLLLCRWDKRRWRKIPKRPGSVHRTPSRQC
Procedure: Measurement of M1 Receptor Positive Allosteric Modulator (M1PAM) Activity
The activity of a test compound in the presence of acetylcholine at an EC20 concentration affording about 20% action of the maximum activity was measured as PAM activity. The method therefor is as follows. To a 384-well white plate (Greiner) was added 4 μL of the test compound diluted with IP1 Stimulation buffer (CisBio) containing 0.1% fatty acid-free BSA containing 80 nM acetylcholine. Freeze stock of CHO-K1 cells stably expressing human M1 receptor (hCHRM1) was prepared with IP1 Stimulation buffer (CisBio) containing 0.1% fatty acid-free BSA, 4 μL thereof was added (10,000 cells/well) and the mixture was cultured in a 5% CO2 incubator at 37° C. for 1 hr. 4 μL of a solution (CisBio) containing IP1-d2 and Anti-IP1-cryptate Tb conjugate was added, the mixture was incubated at room temperature for 1 hr, and the time-resolved fluorescence signal was measured on an Envision plate reader (PerkinElmer). The activity (%) of the test compound was calculated by defining the value when acetylcholine was added at the final concentration of 20 μM as 100% and the value when DMSO was added instead of the test compound under acetylcholine-free conditions as 0%, and the EC50 value was calculated as a value of 50% of the concentration dependence curve of the test compound.

Male SD rats = assay: Rat defecation experiment; type: in vivo; details: mean ± standard error
Procedure: Rat Defecation Experiment
Male SD rats (5-6 weeks old) were used after an acclimation period for about 1 week. A test drug (1 mg/kg or […]) was suspended in 0.5% methylcellulose solution and orally administered at a volume of 5 mL/kg, and the number of feces 2 hr later was counted. Only 0.5% methylcellulose was administered to a solvent administration group.

Rat PK test = type: in vivo; details: plasma, male SD rats
Procedure: As the rat, 8-week-old male SD rats (Japan SLC, Inc.) were used. They were fed on a solid commercially available diet (CE-2, CLEA Japan, Inc.) and allowed to freely ingest tap water as the drinking water. An intravenous administration solution for the rats was prepared by weighing a test compound, dissolving same in dimethylacetamide (DMA) (Wako Pure Chemical Industries, Ltd.), adding the same volume of 1,3-butanediol (Wako Pure Chemical Industries, Ltd.) and mixing by stirring to give a DMA:1,3-butanediol (1:1, v/v) solution. An oral administration solution was prepared by weighing a test compound, pulverizing same in an agate mortar, and gradually adding 0.5 w/v % aqueous methylcellulose solution to give a suspension. For intravenous administration, the solution was administered into femoral vein of the rats at 0.1 mg/0.5 mL/kg (salt converted to free form). For oral administration, the suspension was administered to the rats at 1 mg/5 mL/kg (salt converted to free form). The cassette dosing method was used for the both administration routes, and the test compound was administered in the following manner.
Compound of Example 1 (Intravenous: 10 Compounds Cassette Administration, Oral: 5 Compounds Cassette Administration)
In the case of intravenous administration, blood samples were collected from the tail vein at 5, 10, 15, 30 min, 1, 2, 4, 8 hr after administration, an anticoagulation treatment with heparin sodium (Shimizu Pharmaceutical Co., Ltd.) was performed, and plasma was collected after centrifugation and subjected to the measurement of drug concentration. In the case of oral administration, blood samples were collected from the tail vein at 15, 30 min, 1, 2, 4, 8 hr after administration, an anticoagulation treatment with heparin sodium was performed, and plasma was collected after centrifugation and subjected to the measurement of drug concentration.
All drug concentrations were measured by LC-MS/MS analysis. […]

MDR1 = target: T2, MDR1 (Homo sapiens, UniProt P08183); assay: MDR1 membrane permeability test; type: in vitro ADME; details: LLC-PK1, pH 7.4, 10 μmol/L test compound, Papp B to A / Papp A to B, read-out: Efflux ratio (ER)
T2 construct: expressed in transfected cells
T2 sequence (P08183 whole entry): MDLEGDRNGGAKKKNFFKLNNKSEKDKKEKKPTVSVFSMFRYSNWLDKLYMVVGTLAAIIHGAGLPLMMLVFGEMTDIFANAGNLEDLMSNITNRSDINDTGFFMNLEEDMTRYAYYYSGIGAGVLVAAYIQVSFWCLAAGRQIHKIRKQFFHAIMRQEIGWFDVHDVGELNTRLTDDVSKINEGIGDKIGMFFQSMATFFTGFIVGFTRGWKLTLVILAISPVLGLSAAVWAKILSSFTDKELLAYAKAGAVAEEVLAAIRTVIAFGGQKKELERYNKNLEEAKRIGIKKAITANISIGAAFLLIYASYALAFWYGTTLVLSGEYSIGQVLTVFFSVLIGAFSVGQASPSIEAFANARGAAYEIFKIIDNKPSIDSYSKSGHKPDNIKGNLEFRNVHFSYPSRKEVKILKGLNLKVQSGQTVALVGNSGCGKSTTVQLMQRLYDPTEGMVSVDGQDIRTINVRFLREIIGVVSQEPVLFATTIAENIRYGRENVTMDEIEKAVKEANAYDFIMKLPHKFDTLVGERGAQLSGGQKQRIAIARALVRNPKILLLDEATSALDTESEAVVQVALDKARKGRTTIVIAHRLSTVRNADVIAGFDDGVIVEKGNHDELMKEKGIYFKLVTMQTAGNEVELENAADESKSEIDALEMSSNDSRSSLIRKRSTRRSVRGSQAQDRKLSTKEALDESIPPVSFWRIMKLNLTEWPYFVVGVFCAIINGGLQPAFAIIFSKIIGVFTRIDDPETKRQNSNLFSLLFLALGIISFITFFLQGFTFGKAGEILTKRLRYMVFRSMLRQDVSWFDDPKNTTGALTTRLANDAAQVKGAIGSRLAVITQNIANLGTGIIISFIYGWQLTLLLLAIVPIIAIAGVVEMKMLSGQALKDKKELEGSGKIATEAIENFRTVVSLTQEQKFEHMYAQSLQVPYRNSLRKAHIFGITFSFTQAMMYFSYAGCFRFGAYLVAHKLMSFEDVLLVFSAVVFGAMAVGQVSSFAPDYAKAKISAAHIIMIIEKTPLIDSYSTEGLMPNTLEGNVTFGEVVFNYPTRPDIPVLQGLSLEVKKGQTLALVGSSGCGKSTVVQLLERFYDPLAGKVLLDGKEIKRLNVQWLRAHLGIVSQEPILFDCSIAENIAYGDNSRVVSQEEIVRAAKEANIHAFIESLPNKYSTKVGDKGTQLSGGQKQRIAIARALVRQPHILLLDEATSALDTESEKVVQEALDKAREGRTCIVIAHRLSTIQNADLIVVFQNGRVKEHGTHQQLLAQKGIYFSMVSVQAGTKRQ
Procedure: MDR1 Membrane Permeability Test
When MDR1 is expressed in excess in LLC-PK1 cell, which is a polar cell, MDR1 is localized in apical membrane (A), thus promoting transcellular transport from the basement membrane side (B) toward direction A. When a ratio to the transcellular transport in the opposite direction is taken and a ratio to a control cell in which a mock vector has been introduced is further taken, an efflux ratio of MDR1 to simple diffusion (corrected efflux ratio) is calculated. Similarly, when a brain/plasma concentration ratio in Mdr1(−/−) mouse is divided by a brain/plasma concentration ratio in wild-type mouse, an efflux ratio of Mdr1 to simple diffusion in blood-brain barrier (BBB) (Kp, brain ratio, higher value means lower central nervous system permeability) is calculated. […]
Transcellular transport was performed according to the report of Sugimoto et al. (Reference 3). […] After 1 hr, the sample was collected from the side opposite to the side where the drug solution was added, and the concentration of the test compound was measured by LC-MS/MS. […]
Papp, A to B and Papp, B to A (apparent permeability) were calculated from the formula (1), and the efflux ratio (ER) was calculated from the formula (2). […]

Male beagle dogs = assay: Experiment on gastrointestinal motility in dogs; type: in vivo, dog; details: 0.03 mg/kg orally, 8 hr after administration, compared with the solvent administration group
Procedure: Experiment on Gastrointestinal Motility in Dogs
Male beagle dogs each equipped with four pressure transducers (one in the ileum and three in the large intestine) were used after an acclimation period for 15 days after surgery. The compound of Example 1 (0.03 mg/kg) was suspended in 0.5% methylcellulose solution and orally administered at a volume of 10 mL/kg. Only 0.5% methylcellulose was administered to a solvent administration group.
HAPC (abbreviation for high amplitude propagated contractions which mean strong contractions propagated from the oral side to the anal side of the large intestine during defecation. Intestinal contraction pattern observed during normal defecation.) at 8 hr after administration was counted using a telemeter for gastrointestinal motility (GTS-850, STARMEDICAL).

## COCCNC(=O)c1ccc(Cc2cc3c(c4c2OCC4)OCN([C@H]2CCOC[C@@H]2O)C3=O)cc1F [Example 1, 1,5-anhydro-2,3-dideoxy-3-[6-({3-fluoro-4-[(2-methoxyethyl)carbamoyl]phenyl}methyl)-4-oxo-8,9-dihydro-2H-furo[2,3-h][1,3]benzoxazin-3(4H)-yl]-L-threo-pentitol]
[1]
  EC50: 0.31 nM
Male SD rats; 1 mg/kg orally
  number of feces 2 hr later: 14.8 ± 1.2
Male SD rats; 3 mg/kg orally
  number of feces 2 hr later: 13.9 ± 2.1
Rat PK test; intravenous 0.1 mg/kg, 10 compounds cassette administration
  MRT: 48 min
Rat PK test; intravenous 0.1 mg/kg, 10 compounds cassette administration, read-out: CL total (converted)
  clearance: 12.6 mL/min/kg
Rat PK test; oral 1 mg/kg, 5 compounds cassette administration
  Tmax: 60 min
MDR1
  efflux ratio at 1 h, 10 μmol/L: 15
Male beagle dogs
  number of HAPCs in the intestinal tract: an increase in the number of HAPCs in the intestinal tract was observed
